Test results: PMC6950750, “Newly Discovered Action of HpTx3 from Venom of Heteropoda venatoria on Nav1.7 and Its Pharmacological Implications in Analgesia” (Toxins, 2019)
Bridge positions count the residues as written; N and C are the ends. Peptide text beside a SMILES is read from it.

What was measured:
[1] = target: T1, Nav1.2 (Rattus norvegicus, UniProt P04775); assay: Whole-cell patch-clamp, Nav1.2 currents in HEK293T cells; assay type: cell-based
T1 construct: expressed in transfected cells; host or cells: HEK293T
Source text: (§1) All the used Nav channel subtype clones (Nav1.2–Nav1.9) and β subunit clones were preserved in our laboratory. cDNAs encoding rat Nav1.2, rat Nav1.3, human Nav1.5, and mouse Nav1.6 were subcloned into the vector pcDNA3.1; cDNA encoding rat Nav1.4 was subcloned into the vector pRGB4; cDNA encoding human Nav1.7 was subcloned into the vector pcDNA3.1-mod; cDNAs encoding rat Nav1.8 and human Nav1.9 were subcloned into the vectors pCMV-HA and pEGFP-N1, respectively. For localizing the binding sites of HpTx3 on the Nav1.7 and therefore probing the its mechanism of action, several chimeras were constructed with a recombination strategy by replacing the extracellular loop S3b–S4 in domain II, domain III, and domain IV of Nav1.7 with the counterpart sequences of Nav1.8, respectively, using the methods described. As a result, three chimeras were prepared, namely, Nav1.7/1.8DIIS3b–S4, Nav1.7/1.8DIII, and Nav1.7/1.8 DIV. […]
(§2) For heterologous expression, the vector plasmids containing wild-type (WT) Nav1.2–Nav1.7 and mutant plasmids were transiently transfected into HEK293T cells (China Center for Type Culture Collection, Wuhan, China) using Lipofectamine 2000 (Invitrogen, Carlsbad, CA, USA) according to the manufacturer’s instructions. […] The cells with green fluorescence were selected for whole-cell patch-clamp analysis 24 h after transfection. […]

[2] = target: T2, Nav1.5 (Homo sapiens, UniProt Q14524); assay: cell-based; assay type: cell-based
T2 construct: expressed in transfected cells; host or cells: HEK293T
Source text: as §1, §2

[3] = target: T3, Nav1.7 (Homo sapiens, UniProt Q15858); assay: Whole-cell patch-clamp, Nav1.7 currents in HEK293T cells; assay type: cell-based; settings: wild type Nav1.7, HEK293T, mean ± SD, n = 4–6
T3 construct: expressed in transfected cells; host or cells: HEK293T
Source text: as §1, §2

[4] = target: T4, Nav1.4 (Rattus norvegicus, UniProt P15390); assay: Whole-cell patch-clamp, Nav1.4 currents in HEK293T cells; assay type: cell-based
T4 construct: expressed in transfected cells; host or cells: HEK293T
Source text: as §1, §2

[5] = target: T5, Nav1.3 (Rattus norvegicus, UniProt P08104); assay: Whole-cell patch-clamp, Nav1.3 currents in HEK293T cells; assay type: cell-based
T5 construct: expressed in transfected cells; host or cells: HEK293T
Source text: as §1, §2

[6] = target: T6, Nav1.6 (Mus musculus, UniProt Q9WTU3); assay: Whole-cell patch-clamp, Nav1.6 currents in HEK293T cells; assay type: cell-based; settings: HEK-293T, 1 μM HpTx3, n = 4–6
T6 construct: expressed in transfected cells; host or cells: HEK293T
Source text: as §1, §2

[7] = test system: hERG channel; assay: Whole-cell patch-clamp, hERG channel in HEK293T cells; assay type: cell-based; settings: 1 µM HpTx3, n = 3
Protocol: The effect of HpTx3 on the hERG channel expressed in HEK293T cells was assayed using the whole cell patch-clamp technique according to the previous method with some modifications. The bathing solution contained (in mM): HEPES 10, MgCl2 1, CaCl2 25, KCl 5, NaCl 50 (pH 7.4, adjusted with 1 M NaOH). The suction pipettes solution contained (in mM): MgCl2 2.5, KCl 140, EGTA 11, HEPES 10 (pH 7.2, adjusted with KOH). The osmotic pressure of the two solutions was adjusted to 280 ± 5 mOsm/L with sucrose. The currents of the hERG channel were induced at −40 mV after a test potential of +30 mV from a holding potential of −80 mV.

[8] = test system: C57BL/6 mice; assay: In vivo toxicity; set-up: species or system mouse (C57BL/6); settings: 20 mg/kg i.p., 8 mice
Protocol: For detecting the potential in vivo toxicity of HpTx3, eight C57BL/6 mice were each intraperitoneally injected with HpTx3 at a dose of 20 mg/kg, which was 4-fold greater than the maximum dose (5 mg/kg) and 100-fold greater than the minimum dose (0.2 mg/kg) that were used in analgesic experiments.

[9] = target: T7, Nav1.7 D816N (Homo sapiens, UniProt Q15858, D827N); assay: Whole-cell patch-clamp, mutant Nav1.7 D816N; assay type: cell-based
T7 construct: expressed in transfected cells; host or cells: HEK293T
Source text: All the used Nav channel subtype clones (Nav1.2–Nav1.9) and β subunit clones were preserved in our laboratory. cDNAs encoding rat Nav1.2, rat Nav1.3, human Nav1.5, and mouse Nav1.6 were subcloned into the vector pcDNA3.1; cDNA encoding rat Nav1.4 was subcloned into the vector pRGB4; cDNA encoding human Nav1.7 was subcloned into the vector pcDNA3.1-mod; cDNAs encoding rat Nav1.8 and human Nav1.9 were subcloned into the vectors pCMV-HA and pEGFP-N1, respectively. For localizing the binding sites of HpTx3 on the Nav1.7 and therefore probing the its mechanism of action, several chimeras were constructed with a recombination strategy by replacing the extracellular loop S3b–S4 in domain II, domain III, and domain IV of Nav1.7 with the counterpart sequences of Nav1.8, respectively, using the methods described. As a result, three chimeras were prepared, namely, Nav1.7/1.8DIIS3b–S4, Nav1.7/1.8DIII, and Nav1.7/1.8 DIV. Moreover, the amino acid residues D816 and E818 in the S3b–S4 sequence of Nav1.7 were mutated into N (Nav1.7 D816N) and Q (Nav1.7 […]), respectively.
For heterologous expression, the vector plasmids containing wild-type (WT) Nav1.2–Nav1.7 and mutant plasmids were transiently transfected into HEK293T cells (China Center for Type Culture Collection, Wuhan, China) using Lipofectamine 2000 (Invitrogen, Carlsbad, CA, USA) according to the manufacturer’s instructions. […] The cells with green fluorescence were selected for whole-cell patch-clamp analysis 24 h after transfection.
The whole-cell patch-clamp technique was employed to analyze the effects of HpTx3 on Nav channel subtypes in the transfected HEK293T and ND7/23 cells using an EPC-10 USB patch-clamp amplifier (HEKA, Elektronik, Lambrecht, Germany). […] Data were collected with the PatchMaster software in the HEKA EPC-10 USB patch-clamp system (HEKA Elektronik, Lambrecht, Germany) and analyzed by the software Igo Pro-6.00, Prism (GraphPad Software, La Jolla, CA, USA), Sigmaplot 10.0 (Systat Software, Inc., San Jose, CA, USA), and OriginPro. […]

[10] = test system: nociceptive neuron excitability; settings: orofacial and other regions in patients; cited from earlier work
Source text: Kv4 channels are expressed predominately in the somata of small and large diameter nociceptors and the dorsal horn of the spinal cord, and all three Kv4 mRNA isoforms (Kv4.1–4.3) are expressed in whole DRG preparations. Overexpression of various components of the Kv4 complex attenuated DGR excitability and pain phenotypes of animals. The drugs that can increase A-type Kv ...

[11] = test system: C57BL/6 mice, SNI model; assay: Spared nerve injury (SNI) model; assay type: in vivo, mouse (C57BL/6); settings: morphine 1 mg/kg; 18 days after surgery; control 0.47 g; n = 8
Protocol: (§3) Healthy female C57BL/6 mice (weighting 18–20 g) that were used for analgesic activity assay were obtained from the Experimental Animal Center of SLac-kinda (Changsha, China) and were randomly assigned to five groups, each group generally containing 8 mice. […] The mice were maintained at a temperature of 20–25 °C and under a 12 h light/12 h dark cycle, with free access to food and water. The ethical approval for the in vivo animal experiments was obtained from the Animal Care and Use Committee of the Hunan Province Animal Management Office. (The approval code: 219/2019).

[12] = test system: C57BL/6 mice, hot plate pain model; assay: Hot plate test; assay type: in vivo, mouse (C57BL/6); settings: morphine 1 mg/kg i.p.
Protocol: as §3
Hot plate test was conducted according to the method described. The hot plate test apparatus (model YSL-21, Jinan, China) was placed in a quiet room, and the temperature was set at 55 ± 1 °C. After each mouse was placed at the hot plate, its nociceptive responses (hind-paw licking or jumping) and nociceptive threshold (paw withdrawal latency) were observed and recorded. […] The mice displaying abnormal baseline paw withdrawals (shorter than 5 s and longer than 30 s) were excluded from the test.

[13] = test system: C57BL/6 mice, CFA pain model; assay: Complete Freund’s adjuvant (CFA)-induced hyperalgesia; assay type: in vivo, mouse (C57BL/6); settings: morphine 1 mg/kg i.m.
Protocol: as §3

[14] = test system: C57BL/6 mice, formalin-induced pain model; assay: Formalin-induced paw licking; assay type: in vivo, mouse (C57BL/6); settings: morphine 1 mg/kg i.m., n = 8
Protocol: as §3
The changes in the formalin-induced nociceptive reaction in mice was used to assess the in vivo effect of HpTx3 on Nav1.7-mediated pain [74, 77, 78]. Paw licking, a pain-related behavior, was induced by subcutaneous intraplantar injection of formalin. […] The time that was spent to lick the injected paw by each mouse during phase I (0–10 min after injection) and phase II (15–35 min after injection) was separately recorded with a digital stopwatch. The nociceptive behavior attenuation by HpTx3 was evaluated by comparison of the paw licking times of the mice in each group.

[15] = test system: Nav1.7; settings: cited from earlier work
Source text: In order to further understand the actions of HpTx3 on the Nav1.7 channel, we examined the effect of the toxin on the current–voltage (I–V) relationship of the Nav channel subtype. […] When the conductance–voltage (G–V) relationship and the steady-state inactivation of Nav1.7 before and after HpTx3 treatment were inve ...

[16] = test system: rodent models of acute and inflammatory pain; settings: cited from earlier work
[17] = test system: Nav1.1–1.8; settings: cited from earlier work
[18] = HEK293T, whole-cell patch-clamp, mean ± SD, n = 4–6
[19] = also ref 20 (HwTx-IV), 36 (HnTx-III), 37 (HnTx-IV)

T7 sequence (Q15858 other isoform, or with tags, fused parts or gaps D816N): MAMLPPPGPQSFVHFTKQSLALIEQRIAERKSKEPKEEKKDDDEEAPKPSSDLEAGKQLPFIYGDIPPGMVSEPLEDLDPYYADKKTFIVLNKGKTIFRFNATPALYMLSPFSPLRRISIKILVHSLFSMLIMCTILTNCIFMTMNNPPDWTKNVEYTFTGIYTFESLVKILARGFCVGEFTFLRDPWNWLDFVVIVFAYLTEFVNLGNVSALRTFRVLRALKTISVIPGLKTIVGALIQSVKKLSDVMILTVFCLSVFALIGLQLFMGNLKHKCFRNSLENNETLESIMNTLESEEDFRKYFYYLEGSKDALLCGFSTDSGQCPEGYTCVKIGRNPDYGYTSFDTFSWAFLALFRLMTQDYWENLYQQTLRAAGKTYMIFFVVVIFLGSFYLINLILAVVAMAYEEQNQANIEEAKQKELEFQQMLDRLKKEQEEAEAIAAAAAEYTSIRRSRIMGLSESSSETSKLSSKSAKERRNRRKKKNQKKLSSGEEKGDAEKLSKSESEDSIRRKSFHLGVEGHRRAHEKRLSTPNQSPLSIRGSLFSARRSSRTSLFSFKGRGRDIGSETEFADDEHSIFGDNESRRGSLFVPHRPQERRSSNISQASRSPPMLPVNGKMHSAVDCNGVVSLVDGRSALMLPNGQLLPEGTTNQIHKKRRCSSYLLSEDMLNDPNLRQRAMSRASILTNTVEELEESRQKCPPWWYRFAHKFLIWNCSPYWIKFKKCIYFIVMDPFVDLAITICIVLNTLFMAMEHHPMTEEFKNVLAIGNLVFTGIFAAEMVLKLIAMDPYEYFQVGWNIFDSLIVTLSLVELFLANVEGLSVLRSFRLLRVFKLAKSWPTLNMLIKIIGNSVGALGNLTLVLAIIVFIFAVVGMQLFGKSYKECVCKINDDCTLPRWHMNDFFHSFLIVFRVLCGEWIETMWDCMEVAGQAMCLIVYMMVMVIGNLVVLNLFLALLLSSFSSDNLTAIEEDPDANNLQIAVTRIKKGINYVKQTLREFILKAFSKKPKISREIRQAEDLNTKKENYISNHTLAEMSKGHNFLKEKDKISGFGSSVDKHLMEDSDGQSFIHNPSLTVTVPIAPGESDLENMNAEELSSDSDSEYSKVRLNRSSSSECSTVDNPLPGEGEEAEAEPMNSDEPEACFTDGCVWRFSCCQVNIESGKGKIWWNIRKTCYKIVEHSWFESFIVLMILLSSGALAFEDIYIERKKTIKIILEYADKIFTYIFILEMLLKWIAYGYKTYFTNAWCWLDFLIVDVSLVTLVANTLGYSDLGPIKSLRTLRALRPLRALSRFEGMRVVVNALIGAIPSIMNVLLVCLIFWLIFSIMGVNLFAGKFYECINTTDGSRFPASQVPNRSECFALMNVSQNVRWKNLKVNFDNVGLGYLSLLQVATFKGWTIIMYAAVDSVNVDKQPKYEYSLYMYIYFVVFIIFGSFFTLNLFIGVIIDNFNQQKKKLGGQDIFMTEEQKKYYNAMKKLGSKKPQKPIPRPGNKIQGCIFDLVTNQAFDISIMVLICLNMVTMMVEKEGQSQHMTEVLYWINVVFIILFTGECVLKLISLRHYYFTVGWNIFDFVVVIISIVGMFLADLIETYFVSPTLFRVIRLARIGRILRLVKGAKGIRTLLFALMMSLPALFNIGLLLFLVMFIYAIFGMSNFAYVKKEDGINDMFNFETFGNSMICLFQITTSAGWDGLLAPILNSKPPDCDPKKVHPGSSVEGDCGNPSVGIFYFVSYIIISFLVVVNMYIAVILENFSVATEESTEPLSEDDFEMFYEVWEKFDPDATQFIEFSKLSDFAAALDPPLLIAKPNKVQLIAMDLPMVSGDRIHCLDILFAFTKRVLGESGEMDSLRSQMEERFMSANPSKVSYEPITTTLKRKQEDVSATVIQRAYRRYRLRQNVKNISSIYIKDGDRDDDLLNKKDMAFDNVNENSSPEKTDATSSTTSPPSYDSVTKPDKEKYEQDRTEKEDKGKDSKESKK
T7 sequence (Q07699 19-218, further chain): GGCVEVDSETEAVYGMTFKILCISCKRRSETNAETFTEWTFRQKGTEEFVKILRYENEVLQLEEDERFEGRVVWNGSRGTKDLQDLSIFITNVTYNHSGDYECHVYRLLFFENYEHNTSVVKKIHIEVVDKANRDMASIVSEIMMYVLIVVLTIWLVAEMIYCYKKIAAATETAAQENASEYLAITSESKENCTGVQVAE
T7 sequence (O60939 30-215, further chain): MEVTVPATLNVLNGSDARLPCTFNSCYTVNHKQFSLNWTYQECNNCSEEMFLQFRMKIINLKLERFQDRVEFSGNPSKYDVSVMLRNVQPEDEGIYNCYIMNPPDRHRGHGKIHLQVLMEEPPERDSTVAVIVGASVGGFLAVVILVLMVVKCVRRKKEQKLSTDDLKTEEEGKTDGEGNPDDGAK
T4 sequence (P15390 whole entry): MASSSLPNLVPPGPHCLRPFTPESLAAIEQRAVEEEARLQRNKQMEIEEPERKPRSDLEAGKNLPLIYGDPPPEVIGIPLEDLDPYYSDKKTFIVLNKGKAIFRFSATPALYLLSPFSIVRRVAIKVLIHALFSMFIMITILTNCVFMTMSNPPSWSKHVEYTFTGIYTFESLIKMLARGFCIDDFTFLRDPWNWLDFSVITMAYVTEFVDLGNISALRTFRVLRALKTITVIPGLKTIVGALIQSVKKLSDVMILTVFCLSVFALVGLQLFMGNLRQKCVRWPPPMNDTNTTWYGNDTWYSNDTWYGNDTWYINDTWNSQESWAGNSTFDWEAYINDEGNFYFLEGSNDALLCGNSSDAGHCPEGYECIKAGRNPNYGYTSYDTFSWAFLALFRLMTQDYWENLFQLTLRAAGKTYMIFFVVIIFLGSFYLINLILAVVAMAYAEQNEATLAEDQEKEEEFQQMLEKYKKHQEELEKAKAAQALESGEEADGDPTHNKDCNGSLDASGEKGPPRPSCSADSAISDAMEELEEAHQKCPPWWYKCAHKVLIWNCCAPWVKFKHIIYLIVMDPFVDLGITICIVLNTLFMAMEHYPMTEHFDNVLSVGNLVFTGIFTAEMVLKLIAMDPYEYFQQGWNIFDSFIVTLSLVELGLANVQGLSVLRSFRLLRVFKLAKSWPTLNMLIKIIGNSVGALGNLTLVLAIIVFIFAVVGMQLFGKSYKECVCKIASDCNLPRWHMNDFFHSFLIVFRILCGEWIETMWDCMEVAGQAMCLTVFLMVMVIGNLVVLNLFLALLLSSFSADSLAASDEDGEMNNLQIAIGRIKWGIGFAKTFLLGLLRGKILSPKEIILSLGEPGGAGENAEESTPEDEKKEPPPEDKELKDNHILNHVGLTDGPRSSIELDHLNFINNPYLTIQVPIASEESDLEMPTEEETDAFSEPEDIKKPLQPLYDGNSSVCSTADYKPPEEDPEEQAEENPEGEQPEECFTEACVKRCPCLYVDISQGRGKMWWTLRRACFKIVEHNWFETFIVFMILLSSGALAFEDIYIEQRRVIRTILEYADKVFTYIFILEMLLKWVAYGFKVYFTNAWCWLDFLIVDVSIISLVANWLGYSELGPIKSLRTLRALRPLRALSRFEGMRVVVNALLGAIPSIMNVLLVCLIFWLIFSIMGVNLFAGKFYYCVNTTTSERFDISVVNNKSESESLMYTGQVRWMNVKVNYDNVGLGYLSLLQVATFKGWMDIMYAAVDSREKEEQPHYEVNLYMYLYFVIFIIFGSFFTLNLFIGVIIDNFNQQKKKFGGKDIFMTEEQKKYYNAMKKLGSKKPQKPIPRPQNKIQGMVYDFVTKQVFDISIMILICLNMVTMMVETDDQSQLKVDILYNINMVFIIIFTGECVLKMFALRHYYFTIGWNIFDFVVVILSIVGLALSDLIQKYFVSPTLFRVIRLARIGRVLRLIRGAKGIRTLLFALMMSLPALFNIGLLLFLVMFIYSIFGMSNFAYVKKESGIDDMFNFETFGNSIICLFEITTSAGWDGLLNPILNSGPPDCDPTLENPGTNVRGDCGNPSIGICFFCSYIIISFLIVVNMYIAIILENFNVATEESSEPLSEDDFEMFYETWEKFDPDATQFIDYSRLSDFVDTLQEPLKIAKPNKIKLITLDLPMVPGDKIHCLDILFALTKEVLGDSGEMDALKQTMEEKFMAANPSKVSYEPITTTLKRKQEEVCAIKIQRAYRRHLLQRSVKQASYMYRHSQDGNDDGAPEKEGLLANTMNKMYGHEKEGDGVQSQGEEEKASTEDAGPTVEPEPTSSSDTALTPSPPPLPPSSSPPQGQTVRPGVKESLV
T3 sequence (O60939 30-215): as the sequence (O60939 30-215, further chain) above
T3 sequence (Q07699 19-218, further chain): as the sequence (Q07699 19-218, further chain) above
T3 sequence (Q15858 other isoform, or with tags, fused parts or gaps): as the sequence (Q15858 other isoform, or with tags, fused parts or gaps D816N) above, with N816D counted along it

In the case of `CC[C@H](C)[C@@H]1NC(=O)[C@H](Cc2ccccc2)NC(=O)CNC(=O)[C@H](CCC(=O)O)NC(=O)[C@@H]2CSSC[C@H](NC(=O)[C@@H](N)CCC(=O)O)C(=O)NCC(=O)N[C@@H]([C@@H](C)O)C(=O)N[C@@H](CC(C)C)C(=O)N[C@@H](Cc3ccccc3)C(=O)N[C@@H](CO)C(=O)NCC(=O)N[C@H]3CSSC[C@H](NC1=O)C(=O)N[C@@H](CCCCN)C(=O)N[C@@H](CC(C)C)C(=O)N[C@@H](Cc1c[nH]c4ccccc14)C(=O)N[C@H](C(=O)N[C@@H](CCCNC(=N)N)C(=O)N[C@@H](Cc1ccc(O)cc1)C(=O)N[C@@H](CCC(=O)O)C(=O)N[C@@H](CCCNC(=N)N)C(=O)N[C@H](C(=O)N[C@@H](Cc1c[nH]c4ccccc14)C(N)=O)[C@@H](C)O)CSSC[C@H](NC(=O)[C@H](CC(=O)O)NC(=O)[C@H](C)NC(=O)[C@H](Cc1c[nH]cn1)NC(=O)[C@H]([C@@H](C)O)NC(=O)[C@H](CO)NC3=O)C(=O)N2` [HpTx3, Heteropodatoxin3] (H-ECGTLFSGCSTHADCCEGFICKLWCRYERTW-NH2; disulfide 2-16, 9-21, 15-25), the IC50 [1, 18] is reported as 19.7 ± 0.49 µM, the “selectivity for Nav1.7 over Nav1.2” value ([1]; ratio of IC50) is reported as 145 fold and the inhibition at 1 µM ([2]; HEK-293T, 1 μM HpTx3, HEK293T, whole-cell patch-clamp, n = 4–6, read-out: inhibition of Nav1.5 currents) is reported as 12.8%. The “selectivity for Nav1.7 over Nav1.5” value ([2]; ratio of IC50) was 122 fold, the IC50 [3] was 0.136 ± 0.013 µM and the IC50 [4, 18] was 18.5 ± 0.21 µM. The “selectivity for Nav1.7 over Nav1.4” value ([4]; ratio of IC50) was 136 fold, the IC50 [5, 18] was 14.1 ± 2.5 µM and the “selectivity for Nav1.7 over Nav1.3” value ([5]; ratio of IC50) was 104 fold. For the same molecule, the inhibition at 1 µM [6] was 46%, the “inhibition of hERG channel current” value [7] was “about 40%” and the course of symptoms ([8]; after 5 min and after 10 min) was “the symptoms became gradually weaker and disappeared completely after 10 min”. For the same molecule, the symptoms after injection ([8]; within 5 min after injection) was “some discomfort symptoms such as body curling and writhing”, the IC50 ([9]; HEK293T, mean ± SD, n = 6) was 3.13 ± 2.6 µM and the inhibition at 1 µM ([9]; HEK-293T, 1 μM HpTx3, HEK293T, n = 6, read-out: inhibition of Nav1.7 D816N current) was 23.7%. For the same molecule, the “IC50 difference Nav1.7 D816N versus wild type Nav1.7” value ([9]; ratio of IC50) was 23 fold.

In the case of `O=C1[O][Pt]2([NH][C@@H]3CCCC[C@H]3[NH]2)[O]C1=O` [Oxaliplatin], the “effect on nociceptive neuron excitability” value [10] is given as “increases nociceptive neuron excitability to result in neuropathic pain”.

With `CN1CC[C@]23c4c5ccc(O)c4O[C@H]2[C@@H](O)C=C[C@H]3[C@H]1C5` [morphine] the “average paw withdrawal threshold, SNI” value [11] was 1.05 g, the “time of most analgesic effect after injection, hot plate” value [12] was 0.5 h and the “average paw withdrawal latency, hot plate” value ([12]; 55 ± 1 °C, control 5.93 s, n = 8) was 11.03 s. For the same molecule, the “time of strongest analgesic effect after injection, CFA” value [13] was 0.5 h, the “paw withdrawal threshold, CFA” value ([13]; control 0.71 g, n = 8) was 1.05 g and the “total paw licking time, phase I” value ([14]; 0–10 min after formalin, control 248 s) was 99 s. The “total paw licking time, phase II” value ([14]; 15–35 min after formalin, control 572.7 s) was 134.3 s.

For HwTx-IV: Nav1.7-targeting peptide toxin, the “alteration in voltage-dependence of activation and steady-state inactivation of Nav1.7” value [15, 19] is listed as “less than 5 mV” and the “effect on I-V relationship for Nav1.7” value [15, 19] is listed as “do not alter the I-V relationship”.

For ProTx-II: typical gating modifier toxin, the “shift of Nav1.7 channel activation in the depolarizing direction” value [15] is given as 31.1 mV, the “efficacy in rodent models of acute and inflammatory pain” value [16] is given as “not efficacious” and the “inhibition of sodium channel subtypes” value [17] is given as “can inhibit multiple sodium channel subtypes (Nav1.1–1.8), but preferentially inhibits hNav1.7”.
